# Results published in ChEMBL document CHEMBL3885861, “Open TG-GATES”.
# Species: Rattus norvegicus
# Test: Open TG-GATES - Regimen: Daily Repeat
# Format: toxicity, organism-based, Sprague-Dawley
# Set-up: regimen Daily Repeat, gender Male, age 6 weeks
# Settings: in vivo, po, 0 mg/kg, route gavage, dose level Control; for APTT / Bas / Eos / Fbg / Hb / Ht / Lym / MCH / MCHC / MCV / Mono / Neu / PT / Plat / RBC / Ret / WBC: tissue Blood; for KIDNEY_L / KIDNEY_R / KIDNEY_TOTAL: tissue Kidney; for LIVER: tissue Liver; for A/G / ALP / ALT / AST / BUN / CRE / Ca / Cl / DBIL / GLC / IP / K / LDH / Na / PL / RALB / TBIL / TC / TG / TP / gamma-GTP: tissue Plasma
smiles,measurement,setting,value
CCCCNC(=O)NS(=O)(=O)c1ccc(C)cc1 [TOLBUTAMIDE],TERMINAL_BW,"72 h, time 3 day",235.2 g
same,APTT,"72 h, time 3 day",16.5 s
same,Bas,"72 h, time 3 day",0.2%
same,Eos,"72 h, time 3 day",1%
same,Fbg,"72 h, time 3 day",315.4 mg/dL
same,Hb,"72 h, time 3 day",14 g/dL
same,Ht,"72 h, time 3 day",43.2%
same,Lym,"72 h, time 3 day",74.6%
same,MCH,"72 h, time 3 day",20.4 pg
same,MCHC,"72 h, time 3 day",32.4%
same,MCV,"72 h, time 3 day",63 fL
same,Mono,"72 h, time 3 day",2.2%
same,Neu,"72 h, time 3 day",21.6%
same,PT,"72 h, time 3 day",13 s
same,Plat,"72 h, time 3 day",112.3 x10_4/uL
same,RBC,"72 h, time 3 day",686.4 x10_4/ul
same,Ret,"72 h, time 3 day",6.8%
same,WBC,"72 h, time 3 day",101.6 x10_2/uL
same,KIDNEY_L,"72 h, time 3 day",1 g
same,KIDNEY_R,"72 h, time 3 day",1 g
same,KIDNEY_TOTAL,"72 h, time 3 day",2 g
same,LIVER,"72 h, time 3 day",10.6 g
same,A/G,"72 h, time 3 day",0.9
same,ALP,"72 h, time 3 day",1867 IU/L
same,ALT,"72 h, time 3 day",51 IU/L
same,AST,"72 h, time 3 day",75.2 IU/L
same,BUN,"72 h, time 3 day",15 mg/dL
same,CRE,"72 h, time 3 day",0.2 mg/dL
same,Ca,"72 h, time 3 day",11.3 mg/dL
same,Cl,"72 h, time 3 day",105.2 meq/L
same,DBIL,"72 h, time 3 day",0.014 mg/dL
same,GLC,"72 h, time 3 day",179 mg/dL
same,IP,"72 h, time 3 day",8.9 mg/dL
same,K,"72 h, time 3 day",4.1 meq/L
same,LDH,"72 h, time 3 day",64.4 IU/L
same,Na,"72 h, time 3 day",143.6 meq/L
same,PL,"72 h, time 3 day",149.8 mg/dL
same,RALB,"72 h, time 3 day",2.7 g/dL
same,TBIL,"72 h, time 3 day",0.066 mg/dL
same,TC,"72 h, time 3 day",79 mg/dL
same,TG,"72 h, time 3 day",79.2 mg/dL
same,TP,"72 h, time 3 day",5.7 g/dL
same,gamma-GTP,"72 h, time 3 day",1 IU/L
same,TERMINAL_BW,"[…], time 7 day",272.6 g
same,TERMINAL_BW,"[…], time 14 day",338.7 g
same,TERMINAL_BW,"[…], time 28 day",414.9 g
same,APTT,"[…], time 7 day",17 s
same,Bas,"[…], time 7 day",0.4%
same,Eos,"[…], time 7 day",1%
same,Fbg,"[…], time 7 day",274.8 mg/dL
same,Hb,"[…], time 7 day",13.6 g/dL
same,Ht,"[…], time 7 day",41%
same,Lym,"[…], time 7 day",80%
same,MCH,"[…], time 7 day",20.8 pg
same,MCHC,"[…], time 7 day",33.3%
same,MCV,"[…], time 7 day",62.4 fL
same,Mono,"[…], time 7 day",2.6%
same,Neu,"[…], time 7 day",15.6%
same,PT,"[…], time 7 day",13 s
same,Plat,"[…], time 7 day",127.5 x10_4/uL
same,RBC,"[…], time 7 day",657.4 x10_4/ul
same,Ret,"[…], time 7 day",5.7%
same,WBC,"[…], time 7 day",127.9 x10_2/uL
same,APTT,"[…], time 14 day",17.6 s
same,Bas,"[…], time 14 day",0.2%
same,Eos,"[…], time 14 day",1%
same,Fbg,"[…], time 14 day",284 mg/dL
same,Hb,"[…], time 14 day",14.4 g/dL
same,Ht,"[…], time 14 day",43.7%
same,Lym,"[…], time 14 day",78.4%
same,MCH,"[…], time 14 day",19.9 pg
same,MCHC,"[…], time 14 day",32.8%
same,MCV,"[…], time 14 day",60.7 fL
same,Mono,"[…], time 14 day",1.8%
same,Neu,"[…], time 14 day",18%
same,PT,"[…], time 14 day",13 s
same,Plat,"[…], time 14 day",124.7 x10_4/uL
same,RBC,"[…], time 14 day",721.4 x10_4/ul
same,Ret,"[…], time 14 day",4.4%
same,WBC,"[…], time 14 day",108 x10_2/uL
same,APTT,"[…], time 28 day",18.4 s
same,Bas,"[…], time 28 day",0.2%
same,Eos,"[…], time 28 day",1%
same,Fbg,"[…], time 28 day",277 mg/dL
same,Hb,"[…], time 28 day",15.8 g/dL
same,Ht,"[…], time 28 day",47.1%
same,Lym,"[…], time 28 day",80.2%
same,MCH,"[…], time 28 day",19.4 pg
same,MCHC,"[…], time 28 day",33.4%
same,MCV,"[…], time 28 day",58 fL
same,Mono,"[…], time 28 day",2%
same,Neu,"[…], time 28 day",16%
same,PT,"[…], time 28 day",13.6 s
same,Plat,"[…], time 28 day",107.1 x10_4/uL
same,RBC,"[…], time 28 day",813.4 x10_4/ul
same,Ret,"[…], time 28 day",2.3%
same,WBC,"[…], time 28 day",117.4 x10_2/uL
same,KIDNEY_L,"[…], time 7 day",1.1 g
same,KIDNEY_R,"[…], time 7 day",1.1 g
same,KIDNEY_TOTAL,"[…], time 7 day",2.2 g
same,KIDNEY_L,"[…], time 14 day",1.2 g
same,KIDNEY_R,"[…], time 14 day",1.3 g
same,KIDNEY_TOTAL,"[…], time 14 day",2.5 g
same,KIDNEY_L,"[…], time 28 day",1.5 g
same,KIDNEY_R,"[…], time 28 day",1.5 g
same,KIDNEY_TOTAL,"[…], time 28 day",2.9 g
same,LIVER,"[…], time 7 day",12.8 g
same,LIVER,"[…], time 14 day",15.3 g
same,LIVER,"[…], time 28 day",15.9 g
same,A/G,"[…], time 7 day",0.9
same,ALP,"[…], time 7 day",1890.2 IU/L
same,ALT,"[…], time 7 day",43.2 IU/L
same,AST,"[…], time 7 day",69.2 IU/L
same,BUN,"[…], time 7 day",18.2 mg/dL
same,CRE,"[…], time 7 day",0.2 mg/dL
same,Ca,"[…], time 7 day",10.9 mg/dL
same,Cl,"[…], time 7 day",103.8 meq/L
same,DBIL,"[…], time 7 day",0.012 mg/dL
same,GLC,"[…], time 7 day",189.4 mg/dL
same,IP,"[…], time 7 day",8.1 mg/dL
same,K,"[…], time 7 day",4.1 meq/L
same,LDH,"[…], time 7 day",64.8 IU/L
same,Na,"[…], time 7 day",142.2 meq/L
same,PL,"[…], time 7 day",148.8 mg/dL
same,RALB,"[…], time 7 day",2.6 g/dL
same,TBIL,"[…], time 7 day",0.062 mg/dL
same,TC,"[…], time 7 day",67.2 mg/dL
same,TG,"[…], time 7 day",139.8 mg/dL
same,TP,"[…], time 7 day",5.6 g/dL
same,gamma-GTP,"[…], time 7 day",0.8 IU/L
same,A/G,"[…], time 14 day",0.8
same,ALP,"[…], time 14 day",1297.4 IU/L
same,ALT,"[…], time 14 day",37 IU/L
same,AST,"[…], time 14 day",66.4 IU/L
same,BUN,"[…], time 14 day",16.6 mg/dL
same,CRE,"[…], time 14 day",0.2 mg/dL
same,Ca,"[…], time 14 day",11 mg/dL
same,Cl,"[…], time 14 day",104.2 meq/L
same,DBIL,"[…], time 14 day",0.012 mg/dL
same,GLC,"[…], time 14 day",185.6 mg/dL
same,IP,"[…], time 14 day",7.1 mg/dL
same,K,"[…], time 14 day",3.9 meq/L
same,LDH,"[…], time 14 day",58.8 IU/L
same,Na,"[…], time 14 day",142.6 meq/L
same,PL,"[…], time 14 day",149 mg/dL
same,RALB,"[…], time 14 day",2.7 g/dL
same,TBIL,"[…], time 14 day",0.056 mg/dL
same,TC,"[…], time 14 day",72.8 mg/dL
same,TG,"[…], time 14 day",131.2 mg/dL
same,TP,"[…], time 14 day",5.8 g/dL
same,gamma-GTP,"[…], time 14 day",1 IU/L
same,A/G,"[…], time 28 day",0.8
same,ALP,"[…], time 28 day",1151.4 IU/L
same,ALT,"[…], time 28 day",40.6 IU/L
same,AST,"[…], time 28 day",62 IU/L
same,BUN,"[…], time 28 day",17 mg/dL
same,CRE,"[…], time 28 day",0.3 mg/dL
same,Ca,"[…], time 28 day",10.8 mg/dL
same,Cl,"[…], time 28 day",105.2 meq/L
same,DBIL,"[…], time 28 day",0.014 mg/dL
same,GLC,"[…], time 28 day",186.6 mg/dL
same,IP,"[…], time 28 day",6.7 mg/dL
same,K,"[…], time 28 day",4 meq/L
same,LDH,"[…], time 28 day",52 IU/L
same,Na,"[…], time 28 day",143.2 meq/L
same,PL,"[…], time 28 day",162.4 mg/dL
same,RALB,"[…], time 28 day",2.8 g/dL
same,TBIL,"[…], time 28 day",0.062 mg/dL
same,TC,"[…], time 28 day",78 mg/dL
same,TG,"[…], time 28 day",170 mg/dL
same,TP,"[…], time 28 day",6.3 g/dL
same,gamma-GTP,"[…], time 28 day",1.2 IU/L
